Measured values as given in article PMC11459959, “Discovery of new acetamide derivatives of 5-indole-1,3,4-oxadiazol-2-thiol as inhibitors of HIV-1 Tat-mediated viral transcription” (Antimicrobial Agents and Chemotherapy, 2024).

Columns and labels:
Assay type in all cases: cell-based
HIV-1NL4-3 [1] = assay: HIV-1 replication in PBMCs (p24 […]); details: Human immunodeficiency virus 1, PBMC, Table S1, WT virus, 10-fold serial dilution
Experimental: (§1) The p24 level from the cell supernatant was subsequently determined using a p24 […] kit (PerkinElmer). In parallel, the cell viability was determined without viral infection because of the viral cytopathic effect. […] In parallel, cell viability was determined. The data (A and B) are presented as the mean ± SD (n = 3). (C) PBMCs (4 × 10^5) infected with HIV-AD8 at an MOI of 0.1 were treated with 1.5 µM of the compounds or ARVs for 3 days. The levels of p24 and cell viability were subsequently determined. (D) J1.1 cells were cultured with the compounds ([…]) under 50 ng/mL phorbol myristate acetate (PMA) treatment for 2 days. The level of p24 was subsequently determined. (E) J-Lat 6.3 cells were treated with the compounds (1.5 µM) under 1 µg/mL of PMA for 2 days. The GFP-positive cell population was analyzed using flow cytometry. The data are represented as a value relative to the DMSO-treated vehicle (D) and a percent of the GFP^+ cell population (E) as mean ± SD (n = 3).
(§2) The inhibitory effects of the compounds on viral replication were determined with some minor modifications, as previously described ([12], [62]). […] PBMCs (4 × 10^5) pre-activated with PHA-M for 3 days were washed with fresh media to remove excess PHA-M and subsequently infected with HIV-1NL4-3 or HIV-1AD8 or PIs-resistant HIV-1 strains as A3.01 infection. After infection, the infectious media were replaced with fresh media supplemented with international 10 units (IU)/mL of IL-2 and the indicated compounds. At 72 h after infection, the inhibitory effect of the compounds on viral replication was determined by measuring the p24 amount, an HIV capsid protein, using an HIV-1 p24 […] kit (PerkinElmer, Waltham, MA, USA). Cell viability was determined as described above. The inhibitory effects on provirus reversing in J1.1 and J-Lat 6.3 cells were determined as previously described ([12], [41], [63]) with some minor modifications. Briefly, 5 × 10^4 persistently HIV-1-infected J1.1 or J-Lat 6.3 cells were cultured in either the presence or absence of the compounds at a final concentration of 1.5 µM and treated with PMA (50 ng/mL for J1.1 cells, 1 µg/mL for J-Lat 6.3 cells). Two days after treatment, the levels of viral production were determined using p24 […] for J1.1 cells and flow cytometry analysis for GFP-expressing J-Lat 6.3 cells.

[2] = system: PI-resistant HIV-1 strain 11800; assay: microbe, parasite or virus in culture; details: Human immunodeficiency virus 1, PBMC
Description: (§3) The Tzm-bl-derived dual Tat reporter; TZM-bl/Tat/Rluc (bl-DTR) cells were established from TZM-bl cells using two Dox-inducible lentiviral expression cassettes cloned with Flag-tagged Tat86 and the R-Luc gene, as described in our previous study ([11]). TZM-bl, A3.01, J1.1, and J-Lat 6.3 cells as well as the HIV-1 molecular clone pNL4-3, pNL(AD8), ARV-resistant HIV-1 strains, and HIV-1NL43-IRES-eGFP (pBR43IeG-nef^+, gifted by Dr. Frank Kirchhoff) ([52]) were provided by the National Institute of Health HIV Reagent Program (NIH, Bethesda, MD, USA). HeLa (CCL-2) and 293T (CRL-3216) cell lines were purchased from the American Type Culture Collection (ATCC, Manassas, VA, USA). The bl-DTR, TZM-bl, HeLa, and 293T cells were cultured in Dulbecco’s modified Eagle’s medium supplemented with 1% penicillin–streptomycin and 10% (vol/vol) heat-inactivated fetal bovine serum (all from Gibco-BRL, Gaithersburg, MD, USA), and 1 µg/mL of puromycin and 200 µg/mL of zeocin were additionally supplemented for the bl-DTR cells. PBMCs were purchased from AllCells (Alameda, CA, USA) and cultured as previously described ([12]). The information on ARV-resistant HIV-1 strains was described in previous reports as follows: NNRTI-resistant 12241 and 12243 ([53]); NRTI-resistant 7396, 7406, and 7407 ([54]); INSTI-resistant 11847 and 11849 ([55], [56]); and PI-resistant 11800 and 11803 ([57]). Each molecular HIV-1 clone was transfected to 293T cells, as previously described ([58]), to obtain infectious HIV-1 particles. Virus-containing cell culture supernatants were collected 3 days after transfection, and filtered through a 0.45-µm membrane filter (Millipore Sigma, Burlington, MA, USA) to remove cell debris. The viral titration was performed as described previously ([59]) with some minor modifications. In brief, 1 × 10^4 TZM-bl cells seeded in 96-well plates were infected with 200 µL of virus-containing medium diluted serially twofold. The incubation was for 2 days and the experiment was performed in triplicate; the infection time minimized the virus spread ([59]). The titration of the infectious viral particles was performed with a ß-Gal staining assay using the ßeta-Galactosidase Staining Kit (Mirus Bio, Madison, WI, USA) following the manufacturer’s protocols. In brief, the infected cells were washed with phosphate-buffered saline (PBS) and fixed using a Cell Fixative Working solution. The cells were washed with PBS and stained using the Cell Staining Working Solution containing X-gal. The infected blue-colored cells were counted under a microscope (100× magnification). The infectious virus titer was determined as a mean value of blue-colored cells count × dilution factor and used for determining the multiplicity of infection (MOI) in each infection experiment.
(§4) The inhibitory effects of the compounds on viral replication were determined with some minor modifications, as previously described ([12], [62]). […] PBMCs (4 × 10^5) pre-activated with PHA-M for 3 days were washed with fresh media to remove excess PHA-M and subsequently infected with HIV-1NL4-3 or HIV-1AD8 or PIs-resistant HIV-1 strains as A3.01 infection. After infection, the infectious media were replaced with fresh media supplemented with international 10 units (IU)/mL of IL-2 and the indicated compounds. At 72 h after infection, the inhibitory effect of the compounds on viral replication was determined by measuring the p24 amount, an HIV capsid protein, using an HIV-1 p24 […] kit (PerkinElmer, Waltham, MA, USA). Cell viability was determined as described above. The inhibitory effects on provirus reversing in J1.1 and J-Lat 6.3 cells were determined as previously described ([12], [41], [63]) with some minor modifications.

[3] = system: PI-resistant HIV-1 strain 11803; assay: microbe, parasite or virus in culture; details: Human immunodeficiency virus 1, PBMC
Description: as §3, §4

[4] = system: NRTI-resistant HIV-1 strain 7406; assay: microbe, parasite or virus in culture; details: Human immunodeficiency virus 1, TZM-bl
Experimental: (§5) Fig 7 (A–C) TZM-bl cells (1 × 10^4 cells/well) cultured in a 96-well plate were treated with fivefold serial dilutions of the indicated compound or ARV for 1 h before infection with the HIV-1NL4-3 or ARV-resistant HIV-1 strains at an MOI of 1, respectively. At 48 h after infection, the EC50 values were determined using an F-Luc activity. The symbols represent the fold-change values of EC50 against each mutant virus relative to the wild-type (WT) virus. (D) PBMCs (5 × 10^4 cells/well) were infected with the HIV-1NL4-3 and PIs-resistant HIV-1 strain at an MOI of 0.1, respectively. Subsequently, the PBMCs were treated with 10-fold serial dilutions of the indicated compounds or PI. At 3 days after infection, the EC50 values on the viral replication were determined using a p24 […] assay kit. (E) The inhibitory kinetics for the WT and ARV-resistant viruses. TZM-bl cells infected with WT or ARV-resistant viruses were cultured upon fivefold serial dilutions of each compound for 2 days and the infectivity was determined using an F-Luc activity.
as §3

[5] = system: NRTI-resistant HIV-1 strain 7396; assay: microbe, parasite or virus in culture; details: Human immunodeficiency virus 1, TZM-bl
Experimental: as §5, §3

[6] = system: NRTI-resistant HIV-1 strain 7407; assay: microbe, parasite or virus in culture; details: Human immunodeficiency virus 1, TZM-bl
Experimental: as §5, §3

HIV-1NL4-3 [7] = assay: HIV-1 infectivity in TZM-bl cells (F-Luc); details: Human immunodeficiency virus 1, TZM-bl, 48 h, Table S1, WT virus, TZM-bl, fivefold serial dilutions, MOI 1, 48 h
HIV-1NL4-3 [8] = assay: Time-of-addition assay in TZM-bl cells; details: HIV-1NL4-3 MOI 1, 9 and 13 1.5 μM, T-20 1 µM, triptolide 5 nM, ARVs 1 µM, F-Luc at 54 h
Experimental: Fig 5 (A) Time-of-addition assay. […] Subsequently, the cells were treated with the compounds at the indicated time points (0, 1, 2, 4, 6, 8, 10, 12, 24, 30, 36, 42, and 48 h) after HIV-1 infection. The final concentrations of compounds are described in Materials and Methods. Viral activity according to the timing of drug addition was measured as F-Luc activity at 54 h after infection. The relative activities are represented as the mean ± SD (n = 3) compared with the activity observed 54 h post-infection. The relative time frames associated with each HIV-1 infection step are defined based on the time frame of susceptibility to the drug that blocks that particular infection step. […] At 16 h after infection, the viral reverse transcription (RT) product (viral cDNA) level was determined by quantitative real-time PCR (RT-qPCR) using gag and 18S rRNA primer sets and represented as the mean ± SD (n = 3) normalized against the amount of the 18S rRNA compared with the DMSO control. **P < 0.01 compared with the vehicle (DMSO). (C) An in vitro integrase (IN) assay was performed with 10 µM of the indicated compounds following the manufacturer’s protocol. **P < 0.01 compared with vehicle (DMSO). (D) A3.01 cells were infected with HIV-1 upon treatment with the indicated compounds (5 µM) and ARVs (EFV and DTG) as the experimental controls. At 40 h after infection, cellular chromosomal DNA was purified, and the integrated proviral DNA was detected through nested Alu-PCR amplification.
A time-of-addition assay was performed as previously described ([25]) with minor modifications. […] Reference drug and test compounds were subsequently added at the indicated time (0, 1, 2, 4, 6, 8, 10, 12, 24, 30, 36, 42, and 48 h after infection). Final concentrations were as follows: compounds 9 and 13 (1.5 μM), T-20 (1 µM), Triptolide (5 nM), and ARVs (AZT, EFV, DTG, RAL) (1 µM). The viral activity according to the timing of drug addition was measured using a Bright Glo luciferase assay kit (Promega). Virus activity curves present a % activity relative to the activity observed at 54 h after infection, and the data are presented as the mean ± standard deviation (SD) (n = 3). The relative time frame associated with each HIV-1 infection step was defined based on the sensitivity to each drug that blocks a particular infection step.

[9] = Cell viability of A3.01 cells; details: human; A3.01 cells, absence of HIV-1 infection; mean ± SD; read-out: CC50
Experimental: as §1, §2

[10] = Cell viability of TZM-bl cells (PrestoBlue); details: human; TZM-bl cells, absence of HIV-1 infection; mean ± SD; read-out: CC50
Experimental: The TZM-bl cells (also referred to as JC53BL-13) expressing human CD4, CXCR4, and CCR5 carrying the F-Luc and lacZ genes downstream of the HIV-1 LTR promoter ([60]) were used to determine the inhibitory effect of the compounds on HIV-1 infection, as previously described ([11], [12], [61]). In brief, 1 × 10^4 cells were cultured in 96-well plates for 24 h and subsequently treated with compounds at the indicated concentrations. Without replacement of the culture medium, the cells were subsequently infected with the HIV-1NL4-3 wild-type or ARV-resistant HIV-1 strains at an MOI of 1 to determine the exact inhibitory effect of compounds on a single-round infection. After 48 h, the inhibitory effect of the compounds was determined using a Bright Glo luciferase assay kit (Promega) or β-Galactosidase Enzyme Assay kit (Promega). The infectivity data were presented as a percentage relative to the dimethyl sulfoxide (DMSO) control (vehicle). Cell viability was determined using the resazurin-based PrestoBlue Cell Viability Reagent (Thermo Fisher Scientific, Waltham, MA, USA) following the manufacturer’s instructions.

[11] = system: HIV-1NL4-3 IRES-eGFP-nef+; assay: eGFP-encoding HIV-1 infection of TZM-bl cells; details: 9, 10, 13 1.5 μM, 20, 21, 22 4 μM, seliciclib 10 µM, triptolide 5 nM, DTG 2 nM, EFV 2 nM, 2 days
Experimental: Fig 4 (A) Comparison of the chemical structures between prominent derivatives (9, 10, and 13) and non-functional derivatives (20, 21 and 22). (B) bl-DTR cells were treated with serial dilutions of each compound upon Dox for 24 h. The activities of F-Luc and R-Luc were determined using the Dual-Glo -Luciferase assay system. (C) TZM-bl cells were infected with the HIV-1NL4-3 strain at an MOI of 1 upon treatment of compounds. At 48 h after infection, the viral infectivity and cell viability were determined as described above (Fig. 1). (D) TZM-bl cells were infected with HIV-1NL4-3 IRES-eGFP virus along with the compound treatment. Two days later, GFP-expressing cells were observed by fluorescence microscopy (100× magnification). […] At 48 h after infection, the β-gal activity indicating viral infectivity was determined using the β-gal Enzyme Assay kit. F-Luc activity and cell viability were determined as described above (Fig. 4C). (C and E) The dose-response curves show the relative activity compared with that of the DMSO vehicle (mean ± SD; n = 3).

Cell viability of PBMCs = details: human; PBMCs, absence of HIV-1 infection; mean ± SD; read-out: CC50
Experimental: as §1, §2

`CC(C)CN(C[C@@H](O)[C@H](Cc1ccccc1)NC(=O)O[C@H]1CO[C@H]2OCC[C@H]21)S(=O)(=O)c1ccc(N)cc1` [DRV, darunavir] gave an EC50 (HIV-1NL4-3 [1]) of less than 0.001 µM, an EC50 [2] of 0.15 ± 0.02 µM and an EC50 [3] of 0.03 ± 0.01 µM.
For `Cc1cn([C@H]2C[C@H](N=[N+]=[N-])[C@@H](CO)O2)c(=O)[nH]c1=O` [AZT, zidovudine], the EC50 [4] was 73.12 ± 0.43 µM, the EC50 [5] was 16.4 ± 1.37 µM and the EC50 [6] was greater than 100 µM. For the same compound, the EC50 (HIV-1NL4-3 [7]; read-out: EC50) was 0.11 ± 0.01 µM and the “time of administration after infection at which effectiveness began to decrease / was lost” value (HIV-1NL4-3 [8]) was 6 h.
For `CC[C@H](CO)Nc1nc(NCc2ccccc2)c2ncn(C(C)C)c2n1` [seliciclib, reference compound], the CC50 at 3 days [9] was 27 ± 1.12 µM, the CC50 at 48 h [10] was 39.2 ± 4.09 µM and the “inhibition of viral-expressed eGFP signal” value [11] was “remarkably inhibited”. The CC50 at 3 days (Cell viability of PBMCs) was 21.4 ± 2.1 µM.
`Nc1ccn([C@@H]2CS[C@H](CO)O2)c(=O)n1` [Compound 3TC, lamivudine] gave an EC50 [4] greater than 100 µM, an EC50 [5] of 3.64 ± 1.37 µM and an EC50 [6] greater than 100 µM. The EC50 (HIV-1NL4-3 [7]) was 1.23 ± 0.22 µM.
In the case of enfuvirtide [Compound T-20], the “time of administration after infection at which effectiveness began to decrease / was lost” value (HIV-1NL4-3 [8]) is reported as 1 h.
`Nc1nc(NC2CC2)c2ncn([C@H]3C=C[C@@H](CO)C3)c2n1` [ABC, abacavir] showed an EC50 [4] greater than 100 µM, an EC50 [5] of 22.4 ± 0.39 µM and an EC50 [6] greater than 100 µM. It also gave an EC50 (HIV-1NL4-3 [7]; read-out: EC50) of 12.2 ± 7.48 µM.
